Results reported in a melting point compilation (Tetko et al.; mined from patent text by program, amines drawn as free bases though some values may be those of a salt).

| Structure (SMILES) | melting point [°C] |
| --- | --- |
| CC(C)(C)OC(=O)CCOCCCc1ccnc(-c2nc(=O)c3ccccc3s2)c1 | 81.1 to 82.2 |
| C=CCC(O)CCCCCCCCCCCCCCC (stereo not given) | 37 to 39.5 |
| CC(C(=O)c1ccc(Br)cc1)n1ncn(-c2ccc(N3CCN(c4ccc(O[Si](C)(C)C(C)(C)C)cc4)CC3)cc2)c1=O (stereo not given) | 178 |
| CCN(CC)C(=O)NC1CC2c3cccc4[nH]cc(c34)CC2N(C)C1 (stereo not given) | 171 to 173 |
| COc1cc(-c2cc(C(F)(F)F)nn2-c2ccc(S(C)(=O)=O)cc2)ccc1-c1ccco1 | 138 to 140 |
| CC(C(=O)c1ccccc1)=C1CCCN1 | 91 to 92 |
| OC(CCCCCOc1cccc(Cl)c1)c1cccc(OCc2ccc3ccccc3n2)c1 (stereo not given) | 69.5 to 70.5 |
| Cc1cc(-c2ccc(Cl)cc2)nc(-n2cnc(-c3ccc(S(N)(=O)=O)s3)c2)n1 | 281 |
| CC(C)c1c(Br)c(Br)c(-c2ccc(F)cc2)n1CC[C@H]1C[C@H](O)CC(=O)O1 (relative stereo) | 143 |
| CCc1cccc(C)c1CNc1cc(C(=O)O)cn2nc(C)nc12 | 264 |
| O=c1[nH]c(=S)c2[nH]cnc2n1-c1ccccc1 | > 290 |
| CCCC(=O)c1cnc2c(O)cccc2c1Nc1ccc(F)cc1C | 121 to 122 |
| CN(C)C(=N)c1c(Cl)cc(N=Cc2ccc(N(C)C)cc2F)cc1Cl | 127 to 128 |
| CCNC(=O)c1c(Cl)cc(Cl)cc1[Si](C)(C)C | 101 to 103 |
| Cc1ccc(C(=O)NCCCCN2CCN(C(c3ccccc3)c3ccccc3)CC2)c(O)n1 | 213 to 214 |
| O=c1cc(OCc2ccccc2)cc(C=Cc2ccc3c(c2)OCO3)o1 | 150 to 152 |
| N#Cc1cc(-c2ccoc2)c2ccc(COc3cc(F)cc(-c4cc(F)cc(F)c4)c3)cc2n1 | 189 to 192 |
| Cc1c(NC(=O)CC(C)(C)C)c(C)c2c(c1-c1ccoc1)OCC2c1ccc(C(C)C)cc1 (stereo not given) | 183 to 185 |
| COC(=O)CCN(CC1CC2c3cccc4[nH]cc(c34)CC2N(C)C1)C(=O)NC(C)C (stereo not given) | 112 to 115 |
| CN(C)C=Nc1nc2ncn(C)c(=S)n2n1 | > 300 |
| CC(O)(C(=O)Nc1ccc(S(=O)(=O)N(c2ccccc2)c2ccccc2)cc1)C(F)(F)F (stereo not given) | 217 to 220 |
| COc1ccccc1N1CCN(C[C@@H](C)N(C(=O)c2ccccc2)C(=O)c2ccccc2)CC1 | 115 to 120 |
| CCc1cn(C2CC(O)C(CN(C)Cc3ccccc3)O2)c(=O)[nH]c1=O (stereo not given) | 135 to 137 |
| O=C1c2cc3nnn(C4CC4)c(=O)c3cc2OC2CCCN12 (stereo not given) | 215 to 217 |
| CCOC(=O)C(C)c1ccc2oc(Nc3ccc(Cl)cc3)nc2c1 (stereo not given) | 135 to 137 |

| Structure (SMILES) | melting point [°C] |
| --- | --- |
| CCCCNC(=O)N1CC(Oc2ccc(C(F)(F)F)cc2)C1 | 132 to 134 |
| COC(=O)c1cc(N)n(C)n1 | 101 to 102 |
| COc1ccc(S(=O)(=O)Nc2cccnc2Nc2ccccc2O)cc1 | 154 to 155 |
| CCc1cnc(N2CCN(C(=O)c3ccc(CNc4nc(-c5ccccc5)nc5ccccc45)cc3)CC2)nc1 | 207 to 208 |
| COC(=O)Cn1c(C(=O)NC(N)=S)cc2cc(C)ccc21 | 222 to 224 |
| COc1cc(C#N)cc2c1OC(C)(C)C2 | 73 to 74 |
| Fc1ccc(-c2ccc3[nH]ccc3c2)cc1 | 71 to 74 |
| NC(=O)c1sc(Oc2ccc3c(c2)OCO3)c2c1CCc1cnoc1-2 | 167 to 169 |
| Cc1ccc(-c2ccc3ccccc3c2)n1CC[C@H]1C[C@H](O)CC(=O)O1 (relative stereo) | 45 to 50 |
| CCOC(=O)c1cn(-c2nc(NC(C)(C)C)c(F)cc2F)c2c(Br)c(F)c(F)cc2c1=O | 198 to 203 |
| O=C(NCO)N1CC(Oc2cccc(C(F)(F)F)c2)C1 | 113 to 115 |
| COc1ccc(C(O)CCN2CC=C(c3ccc(Cl)cc3)CC2)cc1 (stereo not given) | 116 to 118 |
| NC(=O)c1nccn1C1Cc2ccccc2C1=O (stereo not given) | 183 |
| CCCc1c(C)[nH]c(C(=O)OCC)c1C | 104 to 106 |
| CC(=O)NC(CC(=O)c1cc(Cl)ccc1N)C(=O)NC(CO)c1ccccc1 (stereo not given) | 212 to 215 |
| O=c1[nH]c2cc(Cl)ccc2c(O)c1-c1ccc([N+](=O)[O-])cc1 | > 350 |
| CCCCCCCCCCCCCCCCCCOc1cc(OCCCCC(=O)OC)cc(C(=O)OCc2ccccc2)c1 | 40 to 42 |
| Cc1cc(F)ccc1-c1ccc2c(c1)NC(=O)CC(c1cccc(-n3ccnc3)c1)=N2 | 170 to 172 |
| O=C(O)Cc1ccc2c(c1)CCc1ccccc1C2=O | 154 |
| CC1(C)CC(=O)C2=C(C1)NC1=C(C(=O)CC(C)(C)C1)C2c1ccc(Cl)cc1Cl | > 300 |
| CC(C)Oc1ccc(C=O)cc1OCCN1C(=O)c2ccccc2C1=O | 110 |
| FC(F)Oc1cn(-c2c(Cl)cc(C(F)(F)F)cc2Cl)nc1C(F)(F)F | 55.5 to 58 |
| CCc1nc2c(C)cc(C)nc2n1Cc1ccc2c(c1)CCc1ccccc1N2CC(=O)O | 114 to 115 |
| c1cn(Cc2ccc3c(c2)Cc2c(-c4ccsc4)n[nH]c2-3)cn1 | 255 to 260 |
| CCCCCc1ccc(OC(=O)N2CCC(OC(=O)NCCCCCCOC(=O)N3CCC4(CCCC4)CC3)CC2)cc1 | 100 to 102 |

| Structure (SMILES) | melting point [°C] |
| --- | --- |
| COc1ccccc1N1CCN(Cc2ccc(O)cc2)CC1 | 172 |
| COc1ccc(CNc2nnc(Cl)c3cc([N+](=O)[O-])ccc23)cc1Cl | 179 to 180 |
| Cc1ccc(-c2nccc3c(CO)cccc23)cc1 | 195 |
| C=Cc1ccnc(-c2cc(C)ccn2)c1 | 82 to 86 |
| CN(C)c1ccc2c(c1)C(=O)OC2 | 182 to 185 |
| Cc1cc(O)ccc1N=Cc1ccccc1O | 95 to 97 |
| O=C(O)Cc1cc(Cl)ccc1Oc1ccccc1 | 119 to 123 |
| COc1cccc(/C=C/C(=O)N2CC(CCl)c3c2cc(N)c2ccccc32)c1 (stereo not given) | > 200 |
| ON=C1CCC2(CC1)OC(c1ccccc1)c1ccccc12 (stereo not given) | 172 to 175 |
| CCOP(=O)(OCC)C(Sc1cc(C(C)(C)C)c(O)c(C(C)(C)C)c1)P(=O)(OCC)OCC | 78 to 80 |
| BrCc1ccc2ocnc2c1 | 90 to 93 |
| CON(C)C(=O)c1cc2c(Sc3ccc(C)cc3)cncc2s1 | 103 to 107 |
| ON=C1c2ccccc2CCC1c1ccccc1 (stereo not given) | 156 to 157 |
| Cc1n[nH]c(CC(=O)O)c1Oc1cc(Cl)cc(Cl)c1 | 156 to 158 |
| O=C(NCCO)c1cccc(-c2ccc3c(c2)N(Cc2cc(Cl)cc(Cl)c2)CC3)c1 | 121 to 128 |
| OC1CCCC2C3CCCCCCC3C12 (stereo not given) | 142 |
| C[Si](C)(C)C#Cc1cn(-c2c(Cl)cc(C(F)(F)F)cc2Cl)nc1C(F)(F)F | 105 to 108 |
| COc1cc2c(O)nc(O)nc2c(OC)c1OC | > 255 |
| Cc1ccc(C(=O)NCc2ccccc2)cc1-c1nc(NCCN(C)C(=O)OC(C)(C)C)nc2c1CNC(=O)N2c1c(F)cccc1F | 160 to 163 |
| Cn1nnnc1-c1cnc2cc(F)c(F)cc2c1O | > 300 |
| O=C1Nc2ccccc2Nc2ccccc21 | 121 to 123 |
| Cc1nn(C)c(C)c1S(=O)(=O)N1CCC2(CC1)CSC1=C(O2)c2ccccc2C(=O)C1=O | 273 to 275 |
| Cc1c(C(=O)O)ccn2nc(-c3ccccc3)nc12 | > 250 |
| COc1cc(C)c(C(=O)c2ccc(OCc3nc(-c4ccccc4)oc3C)cc2)c(O)c1 | 171 to 172 |
| Oc1c2c(nn1-c1ccccn1)CCc1cc(Br)ccc1-2 | 164 to 165 |

| Structure (SMILES) | melting point [°C] |
| --- | --- |
| CCCc1ccnc2c(=O)[nH]c(-c3cc(S(=O)(=O)N4CCN(CCO)CC4)ccc3OCC)nc12 | 187 to 188 |
| FC(F)C(F)(F)Sc1nc(-c2ccc(Cl)c(Cl)c2)c(-c2cccs2)[nH]1 | 178 to 180 |
| CCOc1ccc(-c2nc(C=Cc3ccccc3)cs2)cc1OCC | 94 to 95 |
| O=C(N[C@@H](Cc1ccc(OCc2ccccc2)cc1)C(=O)O)c1cn2cc(/C=C/c3ccccc3)ccc2n1 | 262 to 263 |
| CC(O)Cn1nc2c3c(cc([N+](=O)[O-])cc31)CCC2 (stereo not given) | 147 to 148 |
| Cc1nc(N2CCN(Cc3ccccc3)C2=O)sc1C(=O)NCc1cccc(Cl)c1 | 178 to 179 |
| CCOC(=O)CN(Cc1cc(-n2cc(C)nc2C)ccc1[N+](=O)[O-])C(=O)C(F)(F)F | 172 to 176 |
| O=C1CCCc2snc(Cl)c21 | 84 to 85 |
| CCCc1ccc(-c2ccc(-c3ccc(OC)cc3)nn2)cc1 | 128 to 130 |
| CCOC(=O)c1ccc(-c2nc(O)c(C)s2)cc1 | 207 to 208 |
| CC(C)c1ccc(-c2nc3ccc(OC(F)(F)F)cc3[nH]2)cc1 | 203 to 205 |
| c1cc(Nc2csc3cnccc23)ccn1 | 236 to 238 |
| CS(=O)(=O)c1ccc(C(CC2CCCC2)C(=O)Nc2nc3ccccc3s2)cc1C#N (stereo not given) | 115 to 118 |
| COc1cc(COc2nn(C)cc2/C=C\c2cscn2)ccc1OCc1nc(-c2ccco2)oc1C | 97 to 98 |
| O=S(=O)(c1nc(-c2ccc(Cl)c(Cl)c2)c(-c2cccs2)[nH]1)C(F)(F)C(F)F | 158 to 160 |
| O=C(O)CCc1c(Cl)cccc1-c1cccs1 | 83 to 86 |
| Cc1ccc2cccc(N3CCNCC3)c2n1 | 163 to 164 |
| CN1C(=O)C(c2ccc(OC(F)(F)F)c(F)c2)(c2ccc(F)c(-c3cncc(F)c3)c2)N=C1N (stereo not given) | 91 to 97 |
| Cc1cc2c(cc1O)C(C)(C)CC1(CC(C)(C)c3cc(OCCCn4ccnc4)c(C)cc3O1)O2 (stereo not given) | 209 to 211 |
| O=C1CCC2=C1C(c1ccc(Br)s1)C1=C(CCS1)N2 (stereo not given) | 246 to 247 |
| Cn1ncc(S(=O)Cc2ccccc2)c(Cl)c1=O (stereo not given) | 129 to 131 |
| COc1cc2c(cc1Br)C(=CNc1ccc(N3CCN(C)CC3)cc1)C(=O)NC2=O | 274 to 276 |
| CCCCOCc1cc(-n2nc(C(N)=O)nc2-c2ccccc2)ccc1Cl | 96 to 98 |
| COc1ccc(-c2nc(C(O)(C(F)(F)F)C(F)(F)F)[nH]c2-c2ccc(OC)cc2)cc1 | 144 to 146 |
| Cn1c2ccccc2c2sccc(=O)c21 | 113 to 114 |
